Where two headings read alike, the source gives them in different places.
Experiments:
Format in all cases: in vivo
Pyricularia oryzae [1] = details: nursery box treated with granules 50 g per box; rice Koshihikari; inoculated 30 days after transplantation; lesions counted after 1 week
Pyricularia oryzae [2] = details: spray application of wettable powder diluted to 500 ppm; rice Koshihikari 2-leaf stage; spray-inoculated with Pyricularia oryzae spores; examined after 7 days
Pyricularia oryzae [3] = details: granules applied to water surface at 3 kg/10 ares; rice Koshihikari; inoculated 30 days after application; lesions checked after 1 week

Row | SMILES | Grade of Effect (preventive value, rice blast controlling effect) (Pyricularia oryzae [1]) | Grade of Effect (preventive value, rice blast controlling effect) (Pyricularia oryzae [2]) | Grade of Effect (preventive value, rice blast controlling effect) (Pyricularia oryzae [3])
1 | O=C(NC(CNC(=O)c1ccccc1)c1ccccc1)OCc1ccccc1 (stereo not drawn) [compound 636, N-(benzyloxycarbonyl)-N′-benzoyl-1-phenyl-1,2-ethylenediamine] | A (From 80% to 100%) | A (100%) | A (From 80% to 100%)
2 | C=CCOC(=O)NC(CNC(=O)c1ccc(Cl)cc1)C(C)C (stereo not drawn) [compound 739] | A (From 80% to 100%) | A (100%) | A (From 80% to 100%)
3 | C=CCOC(=O)NC(CNC(=O)c1ccc(C)cc1)C(C)C (stereo not drawn) [compound 742] | A (From 80% to 100%) | A (100%) | A (From 80% to 100%)
4 | C#CCOC(=O)NC(CNC(=O)c1ccc(Cl)cc1)C(C)C (stereo not drawn) [compound 804] | A (From 80% to 100%) | A (100%) | A (From 80% to 100%)
5 | C#CCOC(=O)NC(CNC(=O)c1ccc(C)cc1)C(C)C (stereo not drawn) [compound 807] | A (From 80% to 100%) | A (100%) | A (From 80% to 100%)
6 | Cc1ccc(COC(=O)NC(CNC(=O)c2ccc(Cl)cc2)C(C)C)cc1 (stereo not drawn) [compound 1049] | A (From 80% to 100%) | A (100%) | A (From 80% to 100%)
7 | Cc1ccc(COC(=O)NC(CNC(=O)c2ccc(C)cc2)C(C)C)cc1 (stereo not drawn) [compound 1050] | A (From 80% to 100%) | A (100%) | A (From 80% to 100%)
8 | CC(C)C(CNC(=O)c1ccc(Cl)cc1)NC(=O)OCc1ccc(Cl)cc1 (stereo not drawn) [compound 1063] | A (From 80% to 100%) | A (100%) | A (From 80% to 100%)
9 | Cc1ccc(C(=O)NCC(NC(=O)OCc2ccc(Cl)cc2)C(C)C)cc1 (stereo not drawn) [compound 1066] | A (From 80% to 100%) | A (100%) | A (From 80% to 100%)
10 | CC(OC(=O)NC(CNC(=O)c1ccc(Cl)cc1)C(C)C)c1ccccc1 (stereo not drawn) [compound 1078] | A (From 80% to 100%) | A (100%) | A (From 80% to 100%)
11 | Cc1ccc(C(=O)NCC(C)(NC(=O)OC(C)c2ccccc2)C(C)C)cc1 (stereo not drawn) [compound 1081] | A (From 80% to 100%) | A (100%) | A (From 80% to 100%)
12 | CC(C)C(CNC(=O)c1ccc(Cl)cc1)NC(=O)OCc1ccco1 (stereo not drawn) [compound 1123] | A (From 80% to 100%) | A (100%) | A (From 80% to 100%)
13 | Cc1ccc(C(=O)NCC(NC(=O)OCc2ccco2)C(C)C)cc1 (stereo not drawn) [compound 1126] | A (From 80% to 100%) | A (100%) | A (From 80% to 100%)
14 | CC(C)C(CNC(=O)c1ccc(Cl)cc1)NC(=O)OCc1ccoc1 (stereo not drawn) [compound 1138] | A (From 80% to 100%) | A (100%) | A (From 80% to 100%)
15 | Cc1ccc(C(=O)NCC(NC(=O)OCc2ccoc2)C(C)C)cc1 (stereo not drawn) [compound 1141] | A (From 80% to 100%) | A (100%) | A (From 80% to 100%)
16 | CC(C)C(CNC(=O)c1ccc(Cl)cc1)NC(=O)OCC1CCCO1 (stereo not drawn) [compound 1153] | A (From 80% to 100%) | A (100%) | A (From 80% to 100%)

Row | SMILES | Grade of Effect (preventive value, rice blast controlling effect) (Pyricularia oryzae [1]) | Grade of Effect (preventive value, rice blast controlling effect) (Pyricularia oryzae [2]) | Grade of Effect (preventive value, rice blast controlling effect) (Pyricularia oryzae [3])
17 | Cc1ccc(C(=O)NCC(NC(=O)OCC2CCCO2)C(C)C)cc1 (stereo not drawn) [compound 1156] | A (From 80% to 100%) | A (100%) | A (From 80% to 100%)
18 | CC(C)C(CNC(=O)c1ccc(Cl)cc1)NC(=O)OCc1cccs1 (stereo not drawn) [compound 1168] | A (From 80% to 100%) | A (100%) | A (From 80% to 100%)
19 | Cc1ccc(C(=O)NCC(NC(=O)OCc2cccs2)C(C)C)cc1 (stereo not drawn) [compound 1171] | A (From 80% to 100%) | A (100%) | A (From 80% to 100%)
20 | CC(C)C(CNC(=O)c1ccc(Cl)cc1)NC(=O)OCC1CC1 (stereo not drawn) [compound 1183] | A (From 80% to 100%) | A (100%) | A (From 80% to 100%)
21 | Cc1ccc(C(=O)NCC(NC(=O)OCC2CC2)C(C)C)cc1 (stereo not drawn) [compound 1186] | A (From 80% to 100%) | A (100%) | A (From 80% to 100%)
22 | CC(C)C(CNC(=O)c1ccc(Cl)cc1)NC(=O)OCC(C)(C)C (stereo not drawn) [compound 1198] | A (From 80% to 100%) | A (100%) | A (From 80% to 100%)
23 | Cc1ccc(C(=O)NCC(NC(=O)OCC(C)(C)C)C(C)C)cc1 (stereo not drawn) [compound 1201] | A (From 80% to 100%) | A (100%) | A (From 80% to 100%)
24 | C=C(C)COC(=O)NC(CNC(=O)c1ccc(Cl)cc1)C(C)C (stereo not drawn) [compound 1213] | A (From 80% to 100%) | A (100%) | A (From 80% to 100%)
25 | C=C(C)COC(=O)NC(CNC(=O)c1ccc(C)cc1)C(C)C (stereo not drawn) [compound 1216] | A (From 80% to 100%) | A (100%) | A (From 80% to 100%)
26 | CC(C)C(CNC(=O)c1ccc(Cl)cc1)NC(=O)OC(C)C(C)C (stereo not drawn) [compound 1228] | A (From 80% to 100%) | A (100%) | A (From 80% to 100%)
27 | Cc1ccc(C(=O)NCC(NC(=O)OC(C)C(C)C)C(C)C)cc1 (stereo not drawn) [compound 1231] | A (From 80% to 100%) | A (100%) | A (From 80% to 100%)
28 | CSCCOC(=O)NC(CNC(=O)c1ccc(Cl)cc1)C(C)C (stereo not drawn) [compound 1258] | A (From 80% to 100%) | A (100%) | A (From 80% to 100%)
29 | CSCCOC(=O)NC(CNC(=O)c1ccc(C)cc1)C(C)C (stereo not drawn) [compound 1261] | A (From 80% to 100%) | A (100%) | A (From 80% to 100%)
30 | CC(C)C(CNC(=O)c1ccc(Cl)cc1)NC(=O)OCCS(C)(=O)=O (stereo not drawn) [compound 1273] | A (From 80% to 100%) | A (100%) | A (From 80% to 100%)
31 | Cc1ccc(C(=O)NCC(NC(=O)OCCS(C)(=O)=O)C(C)C)cc1 (stereo not drawn) [compound 1276] | A (From 80% to 100%) | A (100%) | A (From 80% to 100%)

Source: US7312245B2 (priority 2001, dated 2007)
